Holding throughout (format): biochemical
The target of assay [1] is T1, PKC-θ KD (Homo sapiens, UniProt Q04759).
T1 construct: PKC-θ KD (amino acid residues 362 to 706) was cloned into a pET16b expression vector; hexa-histidine (C); Met-Gly (non-native N-terminal residues) (N); made in house; host or cells: E. coli BL21-DE3 (pET16b)
As to the kind of experiment: solvent viscosity studies (sucrose, Ficoll 400) on steady state kinetic parameters. The following applies: from viscosity analysis. The procedure: Next, solvent viscosity studies were performed. Steady state kinetic parameters were determined in the buffer described above for the enzyme kinetics assays containing varied sucrose (0-35%) or Ficoll 400 (0-8%). Relative solvent viscosities (η^ref) were determined in triplicate relative to 25 mM HEPES pH 7.5, 10 mM MgCl2, 2 mM DTT and 100 mM NaCl at 25° C. using an Ostwald viscometer. Buffer with no viscogen is indicated with a superscript of 0. The coupling enzyme system was unaffected by the presence of these viscogens. Thio effect studies with ATPγS and product inhibition studies with ADP were analyzed on a Hewlett Packard series 1100 HPLC using a Phenomenex Auga […] C18 124 A^0 50 mm×4.60 […] column (00B-4299-E0). Phosphorylated peptide was separated from non-phosphorylated peptide using a gradient of 0% to 100% 20 mM phosphate pH 8.8/acetonitrile (50/50). The fluorescein-labeled peptide was detected by excitation at 485 nm and monitoring the fluorescence emission at 530 nm.
To determine if the chemical step is the lone contributor to the rate of the reaction, the effect of solvent viscosity on the steady state kinetic parameters for PKC-θ was determined. Two types of viscogens were employed in this study, the microviscogen sucrose and the macroviscogen Ficoll-400. […]

The target in assay [2] is T1, PKC-θ KD. As to the kind of experiment: coupled PK/LDH assay: steady-state kinetics, product and dead-end inhibition of PKC-θ KD. The following applies: for substrate inhibition: high peptide concentrations.
Assay [3] deals with T1, PKC-θ KD. As to the kind of experiment: HPLC assay: thio effect with ATPγS and product inhibition with ADP. The settings on record: for appKm / rate: peptide1 used in assay; for pattern / Ki: product inhibition.
Where [4] appears, read: varied peptide substrate, saturating ATP.
The mark [5] stands for this setting: varied substrate peptide3, saturating ATP, 100 mM NaCl, read-out: Kis.
Setting [6] is: dead-end inhibition against peptide 1 at saturating ATP (AMP-PNP up to 2.0 mM).
Where [7] appears, read: dead-end inhibition, varied substrate ATP, 100 mM NaCl.
Where [8] appears, read: substrate inhibition, fit to equation (2), saturating ATP, read-out: Ki peptide.

“Also recorded” adds a separate entry of the source. Non-standard residues stand in square brackets, D forms with d. Residues, ends and D or L forms follow the SMILES beside them. pS = N[C@@H](COP(=O)(O)O)C(=O)O

Broadly, the kcat is the number of substrate molecules converted per active site and unit of time at saturation.

T1 sequence (Q04759 with tags, fused parts or gaps): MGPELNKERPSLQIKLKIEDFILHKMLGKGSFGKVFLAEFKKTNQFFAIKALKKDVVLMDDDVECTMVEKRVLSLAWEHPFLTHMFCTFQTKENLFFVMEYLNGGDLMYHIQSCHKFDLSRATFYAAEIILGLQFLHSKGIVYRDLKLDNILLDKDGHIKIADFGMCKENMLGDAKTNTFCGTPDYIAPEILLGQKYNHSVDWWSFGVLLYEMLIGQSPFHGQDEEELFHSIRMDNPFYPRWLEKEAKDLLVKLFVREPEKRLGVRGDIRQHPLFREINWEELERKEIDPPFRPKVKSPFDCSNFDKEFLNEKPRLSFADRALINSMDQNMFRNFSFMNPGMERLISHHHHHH

Regarding “LKRSLSEM [peptide3, substrate derived from the phosphorylation site in serum response factor]”, in assay [1], the stickiness of substrate entry is listed as “not sticky”. The substrate inhibition result in assay [2] is given as “not observed”. Further, in assay [2] (setting [4]), the appKm is 420 ± 21 µM and the kcat worked out at 21 ± 1 s⁻¹. Besides, the appKm in assay [2] (varied peptide substrate, saturating ATP, listed as Peptide 3) came to 420 µM.

For `CC(C)C[C@H](NC(=O)[C@H](COP(=O)(O)O)NC(=O)CNC(=O)[C@H](CCCCN)NC(=O)[C@H](CCCNC(=N)N)NC(=O)[C@H](C)NC(=O)[C@@H](N)Cc1ccccc1)C(=O)N[C@@H](CCCNC(=N)N)C(=O)N[C@@H](CCC(N)=O)C(=O)O` [phosphopeptide1] (H-FARKG[pS]LRQ-OH), the Ki in assay [2] (varied substrate ATP, peptide3 held at 0.5 mM, 100 mM NaCl, read-out: Kii) is 1600 µM; in assay [2] (varied substrate peptide3, ATP held at 0.1 mM, 100 mM NaCl, read-out: Kii), 2000 µM; in assay [2] (varied substrate peptide3, saturating ATP, 100 mM NaCl, read-out: Kii), 1200 µM; in assay [2] (setting [5]) it was 1700 µM.

With `CC(C)C[C@H](NC(=O)[C@H](C)NC(=O)CNC(=O)[C@H](CCCCN)NC(=O)[C@H](CCCNC(=N)N)NC(=O)[C@H](C)NC(=O)[C@@H](N)Cc1ccccc1)C(=O)N[C@@H](CCCNC(=N)N)C(=O)N[C@@H](CCC(N)=O)C(=O)O` [peptide5] (H-FARKGALRQ-OH; N-terminus and C-terminus assumed), the “inhibition pattern in words” value in assay [2] (against peptide 3 at saturating ATP) is given as “competitive inhibitor”; in assay [2] (dead-end inhibition against ATP, listed as Peptide 5), “uncompetitive inhibitor”; in assay [2] (dead-end inhibition against ATP, listed as peptide 5), “un-competitive”; in assay [2] (setting [6]), “competitive inhibitor”. Moreover, the pattern result is listed as “uc (uc, uncompetitive)” in assay [2] (setting [7]); “c (c, competitive)” in assay [2] (dead-end inhibition, varied substrate peptide1, saturating ATP, 100 mM NaCl); “c (c, competitive)” in assay [2] (varied substrate peptide3, saturating ATP, 100 mM NaCl). Further, the Ki was determined as 1100 µM in assay [2] (dead-end inhibition, varied substrate ATP, 100 mM NaCl, read-out: Kii); 10 µM in assay [2] (dead-end inhibition, varied substrate peptide1, saturating ATP, 100 mM NaCl, read-out: Kis); 4.4 µM in assay [2] (setting [5]).

With `Nc1ncnc2c1ncn2[C@@H]1O[C@H](COP(=O)(O)OP(=O)(O)OP(O)(O)=S)[C@@H](O)[C@H]1O` [ATPγS], in assay [3] (100 mM NaCl), the “ratio ATP/ATPγS of appKm” value amounted to 2.1, the “ratio ATP/ATPγS of rate (thio effect)” value turned out to be 112, the appKm is 120 ± 9 µM and the rate was 1.6 ± 0.1 peak area/(reaction time in minutes)([enzyme] nM). Also, in assay [3] (250 mM NaCl), the “ratio ATP/ATPγS of appKm” value was found to be 1.8, the “ratio ATP/ATPγS of rate (thio effect)” value is given as 146, the appKm was determined as 130 ± 5 µM and the rate is 1.3 ± 0.1 peak area/(reaction time in minutes)([enzyme] nM).

In the case of `CC(C)C[C@H](NC(=O)[C@H](CO)NC(=O)CNC(=O)[C@H](CCCCN)NC(=O)[C@H](CCCNC(=N)N)NC(=O)[C@H](C)NC(=O)[C@@H](N)Cc1ccccc1)C(=O)N[C@@H](CCCNC(=N)N)C(=O)N[C@@H](CCC(N)=O)C(=O)O` [peptide1] (H-FARKGSLRQ-OH), the Ki in assay [2] (0 mM NaCl, read-out: substrate inhibition) is 129 µM; in assay [2] (50 mM NaCl, substrate inhibition, read-out: Ki peptide1) it was 201 ± 85 µM; in assay [2] (100 mM NaCl, substrate inhibition, read-out: Ki peptide1), above 2000 µM; in assay [2] (setting [8]), above 2000 µM.

With `CC(C)C[C@H](NC(=O)[C@H](CO)NC(=O)CNC(=O)[C@H](CCCCN)NC(=O)[C@H](CCCNC(=N)N)NC(=O)[C@H](C)NC(=O)[C@H](Cc1ccccc1)NC(=O)[C@@H](N)CCCNC(=N)N)C(=O)N[C@@H](CCCNC(=N)N)C(=O)N[C@@H](CCC(N)=O)C(=O)N[C@@H](CCCCN)C(=O)N[C@@H](CC(N)=O)C(=O)N[C@H](C(=O)O)C(C)C` [peptide2] (H-RFARKGSLRQKNV-OH; N-terminus and C-terminus assumed), the substrate inhibition entry in assay [2] is listed as “observed”. Also, in assay [2] (setting [8]), the Ki was found to be 306 ± 57 µM. Further, the appKm in assay [2] (setting [4]) was 4.3 ± 0.8 µM; in assay [2] (varied peptide substrate, saturating ATP, listed as peptide 2), 4.3 µM.

On to `Nc1ncnc2c1ncn2[C@@H]1O[C@H](COP(=O)(O)OP(=O)(O)NP(=O)(O)O)[C@@H](O)[C@H]1O` [AMP-PNP], for which the “inhibition pattern in words” value in assay [2] (dead-end inhibition against ATP) is “competitive inhibitor”; in assay [2] (setting [6]), “no observed inhibition”. Also, the pattern result in assay [2] (setting [7]) is listed as “c (c, competitive)”. Further, the Ki in assay [2] (dead-end inhibition, varied substrate ATP, 100 mM NaCl, read-out: Kis) stood at 228 µM.

For `Nc1ncnc2c1ncn2[C@@H]1O[C@H](COP(=O)(O)OP(=O)(O)OP(=O)(O)O)[C@@H](O)[C@H]1O` [ATP, adenosine triphosphate], the “appKm ATP” value in assay [2] (0 mM NaCl, 0.2 mM peptide1) came to 25 ± 5 µM. The kcat in assay [2] (100 mM NaCl, fit to equation (1)) was determined as 22 ± 1 s⁻¹; in assay [2] (250 mM NaCl, fit to equation (1)), 24 ± 1 s⁻¹; in assay [2] (varied ATP, peptide1 present), 18 s⁻¹. Moreover, in assay [2] (no peptide vs peptide present), the “ATP hydrolysis slower in absence of peptide substrate than when peptide is present” value stood at 110 times.

As for `Nc1ncnc2c1ncn2[C@@H]1O[C@H](COP(=O)(O)OP(=O)(O)O)[C@@H](O)[C@H]1O` [ADP], the “inhibition pattern in words” value in assay [3] (against ATP at saturating peptide 1) was “competitive inhibitor; also recorded: competitive pattern”; in assay [3] (against peptide 1 at non-saturating ATP (0.1 mM)), “non-competitive pattern”; in assay [3] (against peptide 1 at saturating ATP) it was “no inhibition observed”. The pattern entry in assay [3] (varied substrate ATP, saturating peptide 1, 100 mM NaCl) is reported as “c (c, competitive)”; in assay [3] (varied substrate peptide1, ATP held at 0.1 mM, 100 mM NaCl) it was “nc (nc, noncompetitive)”. The Ki stood at 291 µM in assay [3] (varied substrate ATP, saturating peptide 1, 100 mM NaCl, read-out: Kis); 200 µM in assay [3] (varied substrate peptide1, ATP held at 0.1 mM, 100 mM NaCl, read-out: Kii); 494 µM in assay [3] (varied substrate peptide1, ATP held at 0.1 mM, 100 mM NaCl, read-out: Kis).

For the molecule “RTPKLARQASIELPSM [peptide4, substrate derived from the phosphorylation site in lymphocyte-specific protein-1]”, the substrate inhibition entry in assay [2] is given as “not observed”. Further, the appKm was 240 ± 16 µM in assay [2] (setting [4]) and 240 µM in assay [2] (varied peptide substrate, saturating ATP, listed as peptide 4). Besides, in assay [2] (setting [4]), the kcat was 14 ± 1 s⁻¹.
